Laboratory results published in patent US12024500B2, “Five-membered ring-substituted pyridazinol compounds and derivatives, preparation methods, herbicidal compositions and applications thereof” (Qingdao Kingagroot Chemical Compound Co., Ltd., priority 2018, dated 2024).

Columns and labels:
Format in all cases: in vivo
[1] = system: Veronica polita; test: Post-emergence weed control test (greenhouse pot, spray); settings: 3 weeks after spraying; for weed control effect (activity level), Veronica polita, comparison experiment: 300 g/ha
From the text: (§1) The activity level standard of harmful plant destruction (i.e. growth inhibition rate) is as follows: • Level 10: completely dead; • Level 9: above 90% growth inhibition rate; • Level 8: above 80% growth inhibition rate; • Level 7: above 70% growth inhibition rate; • Level 6: above 60% growth inhibition rate; • Level 5: above 50% growth inhibition rate; • Level 4: above 40% growth inhibition rate; • Level 3: above 30% growth inhibition rate; • Level 2: above 20% growth inhibition rate; • Level 1: below 20% growth inhibition rate; • Level 0: no effect.
(§2) The above described growth inhibition rates are fresh weight inhibition rates.
(§3) Experiment of post-emergence test: monocotyledonous and dicotyledonous weed seeds as well as main crop seeds (i.e., wheat, corn, rice, soybean, cotton, oilseed rape, millet and sorghum) were put into a plastic pot loaded with soil, then covered with 0.5-2 cm of soil, and the seeds were allowed to grow in good greenhouse environment. The test plants were treated at 4-5 leaf stage 2-3 weeks after sowing. The test compounds of the invention were dissolved in acetone respectively, then added with Tween-80 and diluted by a certain amount of water to give solutions with certain concentrations. The solution was sprayed to the plants with a sprayer. The plants were cultured for 3 weeks in the greenhouse.

[2] = system: Amaranthus retroflexus; test: as above; settings: 3 weeks after spraying
From the text: as §1, §2, §3

[3] = system: Chenopodiaceae; test: as above; settings: 3 weeks after spraying
From the text: as §1, §2, §3

[4] = system: Setaria viridis; test: as above; settings: 3 weeks after spraying; for weed control effect (activity level), Setaria viridis, comparison experiment: 300 g/ha; for inhibition at 2000 g/ha: Setaria viridis, 504 h, read-out: weed control effect (activity level, fresh weight growth inhibition rate), Setaria viridis
From the text: as §1, §2, §3

[5] = system: Rorippa indica; test: as above; settings: 3 weeks after spraying; for weed control effect (activity level), Rorippa indica, comparison experiment: 300 g/ha
From the text: as §1, §2, §3

[6] = system: Digitaria sanguinalis; test: Post-emergence weed control test (comparative experiment); settings: 300 g/ha, 3 weeks after spraying
From the text: as §1, §2, §3

[7] = system: Echinochloa crus-galli; test: as above; settings: 300 g/ha, 3 weeks after spraying
From the text: as §1, §2, §3

[8] = Veronica polita, 504 h, read-out: weed control effect (activity level, fresh weight growth inhibition rate), Veronica polita
[9] = Amaranthus retroflexus, 504 h, read-out: weed control effect (activity level, fresh weight growth inhibition rate), Amaranthus retroflexus
[10] = 504 h, read-out: weed control effect (activity level, fresh weight growth inhibition rate), Chenopodiaceae

Row | SMILES | weed control effect (activity level), Veronica polita, comparison experiment [1] | inhibition at 2000 g/ha [1, 8] [%] | inhibition at 2000 g/ha [2, 9] [%] | inhibition at 2000 g/ha [3, 10] [%] | weed control effect (activity level), Setaria viridis, comparison experiment [4] | inhibition at 2000 g/ha [4] [%] | weed control effect (activity level), Rorippa indica, comparison experiment [5] | weed control effect (activity level), Digitaria sanguinalis, comparison experiment [6] | weed control effect (activity level), Echinochloa crus-galli, comparison experiment [7] | further results
1 | CCCCCOC(=O)Oc1cc(Cl)nnc1-c1cc(C)nn1C [Compound 1-1] | 10 | 100 | 100 | 100 | 10 | 100 | 10 | 8 (Level 8: above 80% growth inhibition rate) | 8 (Level 8: above 80% growth inhibition rate) | –
2 | CCSC(=O)Oc1cc(Cl)nnc1-c1cc(C)nn1C [Compound 1-8] | – | 100 | 100 | 100 | – | 100 | – | – | – | –
3 | Oc1cc(Cl)nnc1-c1ccccc1 [Control Compound A, reference compound] | 5 (Level 5: above 50% growth inhibition rate) | – | – | – | 2 (Level 2: above 20% growth inhibition rate) | – | 2 (Level 2: above 20% growth inhibition rate) | 0 | 0 | –
4 | Cc1cc(-c2nnc(Cl)cc2OC(=O)N2CCOCC2)n(C)n1 [Compound 1-9] | – | 100 | 100 | 100 | – | 100 | – | – | – | –
5 | Cc1cc(-c2nnc(Cl)cc2OC(=S)Oc2cccs2)n(C)n1 [Compound 1-5] | – | 100 | 100 | 100 | – | 100 | – | – | – | –
6 | CCCCCCCCSC(=O)Oc1cc(Cl)nnc1-c1ccccc1 [Control Compound B, reference compound] | 5 (Level 5: above 50% growth inhibition rate) | – | – | – | 2 (Level 2: above 20% growth inhibition rate) | – | 3 (Level 3: above 30% growth inhibition rate) | 0 | 0 | –
7 | Cc1cc(-c2nnc(Cl)cc2O)n(C)n1 [Compound 1] | 10 | – | – | – | 10 | – | 10 | 7 (Level 7: above 70% growth inhibition rate) | 8 (Level 8: above 80% growth inhibition rate) | inhibition at 3000 g/ha ([1]; Veronica polita, 504 h, 3000 g/ha, read-out: weed control effect (activity level, fresh weight growth inhibition rate), Veronica polita): 100%; inhibition at 3000 g/ha ([2]; Amaranthus retroflexus, 504 h, 3000 g/ha, read-out: weed control effect (activity level, fresh weight growth inhibition rate), Amaranthus retroflexus): 100%; inhibition at 3000 g/ha ([3]; 504 h, 3000 g/ha, read-out: weed control effect (activity level, fresh weight growth inhibition rate), Chenopodiaceae): 100%; inhibition at 3000 g/ha ([5]; Rorippa indica, 504 h, 3000 g/ha, read-out: weed control effect (activity level, fresh weight growth inhibition rate), Rorippa indica): 100%
8 | Cc1cc(-c2nnc(Cl)cc2OC(C)OC(=O)OC(C)C)n(C)n1 (stereo not shown) [Compound 1-6] | – | 100 | 100 | 100 | – | 100 | – | – | – | –
9 | Oc1cc(Cl)nnc1-c1ccnn1Cc1ccccc1 [Compound 54] | – | – | – | – | – | – | – | – | – | weed control effect (activity level, fresh weight growth inhibition rate), Veronica polita ([1]; 3000 g/ha): 10 (Level 10: completely dead); weed control effect (activity level, fresh weight growth inhibition rate), Amaranthus retroflexus ([2]; 3000 g/ha): 10 (Level 10: completely dead); weed control effect (activity level, fresh weight growth inhibition rate), Chenopodiaceae ([3]; 3000 g/ha): 10 (Level 10: completely dead); weed control effect (activity level, fresh weight growth inhibition rate), Rorippa indica ([5]; 3000 g/ha): 10 (Level 10: completely dead)
10 | Cn1nccc1-c1nnc(Cl)cc1O [Compound 29] | 9 (Level 9: above 90% growth inhibition rate) | – | – | – | 10 | – | 10 | 6 (Level 6: above 60% growth inhibition rate) | 8 (Level 8: above 80% growth inhibition rate) | weed control effect (activity level, fresh weight growth inhibition rate), Veronica polita ([1]; 3000 g/ha): 10 (Level 10: completely dead); weed control effect (activity level, fresh weight growth inhibition rate), Amaranthus retroflexus ([2]; 3000 g/ha): 10 (Level 10: completely dead); weed control effect (activity level, fresh weight growth inhibition rate), Chenopodiaceae ([3]; 3000 g/ha): 10 (Level 10: completely dead); weed control effect (activity level, fresh weight growth inhibition rate), Rorippa indica ([5]; 3000 g/ha): 10 (Level 10: completely dead)
11 | Cn1nc(C#N)cc1-c1nnc(Cl)cc1O [Compound 71] | – | – | – | – | – | – | – | – | – | weed control effect (activity level, fresh weight growth inhibition rate), Veronica polita ([1]; 3000 g/ha): 10 (Level 10: completely dead); weed control effect (activity level, fresh weight growth inhibition rate), Amaranthus retroflexus ([2]; 3000 g/ha): 10 (Level 10: completely dead); weed control effect (activity level, fresh weight growth inhibition rate), Chenopodiaceae ([3]; 3000 g/ha): 10 (Level 10: completely dead); weed control effect (activity level, fresh weight growth inhibition rate), Rorippa indica ([5]; 3000 g/ha): 10 (Level 10: completely dead)
